Measured values: US20110269811A1, “INHIBITORS OF SEMICARBAZIDE-SENSITIVE AMINE OXIDASE (SSAO) AND VAP-1 MEDIATED ADHESION USEFUL FOR TREATMENT AND PREVENTION OF DISEASES” (priority 2006, published 2011)

Test system: carrageenan-induced paw edema
Assay: Carrageenan-induced rat paw edema
Assay type: in vivo, Sprague Dawley rats
Details: therapeutic dosing: 3 mg/kg orally one hour after 0.375% carrageenan; FIG. 8
Source text: Carrageenan-induced paw edema has been extensively used in the evaluation of anti-inflammatory effects of various therapeutic agents and is a useful experimental system for assessing the efficacy of compounds to alleviate acute inflammation (Whiteley P E and Dalrymple S A, 1998. Models of inflammation: carrageenan-induced paw edema in the rat, in Current Protocols in Pharmacology. Enna S J, Williams M, Ferkany J W, Kenaki T, Porsolt R E and Sullivan J P, eds., pp 5.4.1-5.4.3, John Wiley & Sons, New York). The full development of the edema is neutrophil-dependent (Salvemini D. et al. (1996) Br. J. Pharmacol. 118: 829).
Female Sprague Dawley rats were used in groups of 8-12 and compounds of the invention were administered orally at up to 50 mg/kg 60 min prior to carrageenan exposure. The control group was administered orally an equal volume of vehicle (PBS). Edema in the paws was induced as previously described by injecting 50 μL of a 0.5% solution of carrageenan (Type IV Lambda, Sigma) in saline with a 27-G needle s.c. in the right foot pad. (See Whiteley P. E. and Dalrymple S. A. (1998), Models of inflammation: carrageenan-induced paw edema in the rat, in Current Protocols in Pharmacology, Enna S J, Williams M, Ferkany J W, Kenaki T, Porsolt R E and Sullivan J P, eds., pp 5.4.1-5.4.3, John Wiley & Sons, New York) The size of the tested foot of each animal was measured volumetrically with a plethysmometer immediately after injection of carrageenan solution and at various times up to 360 min after carrageenan induction.
Results of experiments with the compounds II-1-E, I-1-Z, and I-2-Z are shown in FIG. 1, FIG. 5, and FIG. 6, respectively.
Using the same procedure discussed above, the size of the foot of each animal was measured volumetrically before induction of edema, and at 1.5, 3, 4.5 and 6 h after the carrageenan injection. The absolute decreases in paw swelling at 6 h with 1, 10 and 50 mg/kg were 5±11%, 20±9% and 32±6% respectively. Statistical analyses were performed with repeated measures ANOVA followed by Dunnett's test for multiple comparisons.
Paw edema was induced in groups of eight Sprague Dawley rats by injecting 50 μL of a 0.375% solution of carrageenan X in saline, subcutaneously in the foot. After one hour animals were orally dosed once with PBS, compound I-1-Z at 50 mg/kg or with indomethacin at 3 mg/kg. The size of the paws were measured before induction of edema (baseline), and at 1.5, 3, 4.5 and 6 h after carrageenan injection. […] Statistical analyses were performed with repeated measures ANOVA followed by Dunnett's test for multiple comparisons.
Groups of eight Sprague Dawley rats were orally administered PBS, or 0.01, 0.1 or 1 mg/kg of compound I-1-Z. One hour later paw edema was induced in all animals by injecting 50 μL of a 0.5% solution of carrageenan X in saline, subcutaneously into the footpad. The size of the foot of each animal was measured volumetrically before induction of edema, and at 1.5, 3, 4.5 and 6 h after the carrageenan injection. The absolute decreases in paw swelling at 6 h with 0.1 and 1 mg/kg were 34±8 and 29±8% respectively. Statistical analyses were performed with repeated measures ANOVA followed by Dunnett's test for multiple comparisons.

SMILES: COc1ccc2c(c1)c(CC(=O)O)c(C)n2C(=O)c1ccc(Cl)cc1 [indomethacin, reference compound]
- inhibition of paw edema at 6 h: 67±8%
